Measured values as given in EPA's ToxRefDB 2.

Experiments:
[1] = test system: rat; conditions: Sub-acute repeat dose toxicity; Oral; Gavage/Intubation; dose end: 14 day; group: systemic; systemic / clinical chemistry / protein / protein + systemic / hematology / erythrocyte (rbc) count differential / erythrocyte (rbc) + …
[2] = test system: primate; conditions: Sub-acute repeat dose toxicity; Oral; Gavage/Intubation; dose end: 7 day; group: systemic; systemic / in life observation / clinical signs / abnormal feces + systemic / hematology / erythrocyte (rbc) count differential / …
[3] = test system: rat; conditions: Sub-acute repeat dose toxicity, Oral, Gavage/Intubation, dose end: 7 day, group: systemic
[4] = test system: primate; conditions: Sub-acute repeat dose toxicity; Oral; Gavage/Intubation; dose end: 14 day; group: systemic; systemic / clinical chemistry / [other] / [other] + systemic / clinical chemistry / testosterone / testosterone + systemic / hematology / …
[5] = test system: primate; conditions: Subchronic oral toxicity in nonrodent, Gavage/Intubation, dose end: 42 day, group: systemic, systemic / clinical chemistry / [other] / [other] + systemic / clinical chemistry / cytochrome p450, nos / cytochrome p450, nos + systemic…
[6] = test system: mouse; conditions: Carcinogenicity, cd1, Oral, Feed, dose end: 18 month, group: systemic
[7] = test system: rat; conditions: Prenatal developmental toxicity study, other, Oral, Gavage/Intubation, dose end: 16 GD
[8] = test system: mouse; conditions: Subchronic oral toxicity in rodents, cd1, Feed, dose end: 90 day, group: systemic
[9] = test system: dog; conditions: Chronic toxicity, beagle, Oral, Feed, dose end: 52 week, group: systemic
[10] = test system: rat; conditions: Subchronic oral toxicity in rodents, sprague dawley, Feed, dose end: 90 day, group: systemic
[11] = test system: dog; conditions: Subchronic oral toxicity in nonrodent, beagle, Feed, dose end: 90 day, group: systemic
[12] = test system: rat; conditions: Multigenerational reproductive toxicity study, other, Oral, Feed, dose end: 2 generation
[13] = test system: primate; conditions: Sub-acute repeat dose toxicity; Oral; Gavage/Intubation; dose end: 8 day; group: systemic; systemic / hematology / neutrophils / neutrophils + systemic / in life observation / body weight / body weight + systemic / in life …
[14] = test system: rabbit; conditions: Sub-acute repeat dose toxicity, Oral, Gavage/Intubation, dose end: 5 day, group: systemic
[15] = test system: rat; conditions: Sub-acute repeat dose toxicity, sprague dawley, Oral, Gavage/Intubation, dose end: 28 day, group: systemic
[16] = test system: rat; conditions: Sub-acute repeat dose toxicity, Oral, Gavage/Intubation, dose end: 14 day, group: systemic
[17] = test system: primate; conditions: Sub-acute repeat dose toxicity; Oral; Gavage/Intubation; dose end: 35 day; group: systemic; systemic / in life observation / clinical signs / emesis
[18] = test system: primate; conditions: Sub-acute repeat dose toxicity, Oral, Gavage/Intubation, dose end: 15 day, group: systemic
[19] = test system: primate; conditions: Sub-acute repeat dose toxicity; Oral; Gavage/Intubation; dose end: 5 day; group: systemic; systemic / clinical chemistry / alanine aminotransferase (alt/sgpt) / alanine aminotransferase (alt/sgpt) + systemic / clinical chemistry / …
[20] = test system: dog; conditions: Sub-acute repeat dose toxicity; beagle; Oral; Gavage/Intubation; dose end: 5 day; group: systemic; systemic / in life observation / clinical signs / emesis
[21] = systemic / clinical chemistry / protein / protein + systemic / hematology / neutrophils / neutrophils + systemic / in life observation / …
[22] = systemic / in life observation / food consumption / food consumption + systemic / clinical chemistry / cytochrome p450, nos / cytochrome …
[23] = group: developmental, developmental / developmental malformation / bone / malformation, total + developmental / developmental malformation / bone / misshapen + …
[24] = group: maternal, reproductive / reproductive performance / resorptions / resorptions + reproductive / reproductive performance / estrous cycle / corpora …
[25] = systemic / hematology / hemoglobin (hgb) / hemoglobin (hgb) + systemic / in life observation / body weight / body weight gain + systemic / …
[26] = systemic / pathology microscopic / liver / pigmentation
[27] = systemic / clinical chemistry / alanine aminotransferase (alt/sgpt) / alanine aminotransferase (alt/sgpt) + systemic / pathology microscopic…
[28] = systemic / hematology / erythrocyte (rbc) count differential / erythrocyte (rbc) + systemic / hematology / hematocrit (hct) / hematocrit (…
[29] = group: offspring, developmental / offspring survival late / lactation index / lactation index + developmental / offspring survival late / viability index / …
[30] = group: parental, systemic / hematology / methemoglobin / methemoglobin
[31] = group: reproductive, reproductive / reproductive performance / gestational length / gestational length + reproductive / reproductive performance / implantations…
[32] = systemic / in life observation / clinical signs / [other] + systemic / in life observation / clinical signs / abnormal feces + systemic / in…
[33] = systemic / in life observation / clinical signs / abnormal feces + systemic / in life observation / clinical signs / general pallor + …
[34] = systemic / hematology / fibrinogen / fibrinogen + systemic / hematology / leukocyte (wbc) count differential / leukocyte (wbc) + systemic / …
[35] = systemic / pathology microscopic / blood / vasculitis + systemic / pathology microscopic / kidney / degeneration + systemic / pathology …
[36] = systemic / in life observation / clinical signs / nasal discharge + systemic / in life observation / clinical signs / salivation
[37] = systemic / pathology gross / intestine large / dilatation + systemic / pathology gross / intestine small / dilatation + systemic / pathology…
[38] = systemic / clinical chemistry / alanine aminotransferase (alt/sgpt) / alanine aminotransferase (alt/sgpt) + systemic / clinical chemistry / …
[39] = systemic / in life observation / body weight / body weight + systemic / in life observation / clinical signs / abnormal feces + systemic / …

What does the source list for Cc1oc(-c2ccccc2)nc1CCOc1cccc2c1ccn2CCC(=O)O?
LEL [1]: 10 mg/kg/day; LOAEL [1]: > 1000 mg/kg/day; NEL [1]: < 10 mg/kg/day; NOAEL [1]: ≥ 1000 mg/kg/day; LEL [2]: 100 mg/kg/day; LOAEL [2]: > 2000 mg/kg/day; NEL [2]: < 100 mg/kg/day; NOAEL [2]: ≥ 2000 mg/kg/day; LOAEL [3, 21]: > 2000 mg/kg/day; NOAEL [3, 21]: ≥ 2000 mg/kg/day; LEL [3, 22]: 100 mg/kg/day; NEL [3, 22]: < 100 mg/kg/day; LEL [4]: 100 mg/kg/day; LOAEL [4]: > 2000 mg/kg/day; NEL [4]: < 100 mg/kg/day; NOAEL [4]: ≥ 2000 mg/kg/day; LEL [5]: 100 mg/kg/day; LOAEL [5]: > 100 mg/kg/day; NEL [5]: < 100 mg/kg/day; NOAEL [5]: ≥ 100 mg/kg/day

With C#CCOc1cc(-n2nc3n(c2=O)CCCC3)c(Cl)cc1Cl [Azafenidin] as the compound, how does the NEL ([6]; systemic / pathology gross / full gross necropsy / proliferation) read?
Its NEL is 4 mg/kg/day.

What about the LOAEL ([6]; systemic / pathology microscopic / liver / adenoma + systemic / pathology microscopic / liver / pigmentation) of the same compound?
The LOAEL was 39.8 mg/kg/day.

And the NOAEL ([6]; systemic / pathology microscopic / liver / adenoma + systemic / pathology microscopic / liver / pigmentation + systemic / hematology / mean …)?
The NOAEL was 4 mg/kg/day.

What about the LEL ([6]; systemic / pathology microscopic / liver / adenoma + systemic / pathology microscopic / liver / pigmentation + systemic / pathology gross / …) of the same compound?
Its LEL is 39.8 mg/kg/day.

What about the LEL [7, 23] of the same compound?
Its LEL is 24 mg/kg/day.

What about the LOAEL [7, 23] of the same compound?
Its LOAEL is 24 mg/kg/day.

And the NEL [7, 23]?
The NEL was 16 mg/kg/day.

What about the NOAEL [7, 23] of the same compound?
Its NOAEL is 16 mg/kg/day.

What about the LEL ([7]; group: maternal, reproductive / reproductive performance / estrous cycle / corpora lutea) of the same compound?
The LEL was 16 mg/kg/day.

What about the LOAEL ([7]; group: maternal, reproductive / reproductive performance / resorptions / resorptions) of the same compound?
Its LOAEL is 24 mg/kg/day.

And the NEL [7, 24]?
Its NEL is 8 mg/kg/day.

And the NOAEL [7, 24]?
Its NOAEL is 16 mg/kg/day.

And the LOAEL [8, 25]?
Its LOAEL is 144 mg/kg/day.

What about the NEL [8, 25] of the same compound?
Its NEL is 7.94 mg/kg/day.

What about the NOAEL [8, 25] of the same compound?
Its NOAEL is 47.2 mg/kg/day.

And the LEL [8, 26]?
The LEL was 47.2 mg/kg/day.

What about the LOAEL [9, 27] of the same compound?
The LOAEL was 0.86 mg/kg/day.

And the NOAEL [9, 27]?
Its NOAEL is 0.3 mg/kg/day.

What about the LEL ([9]; systemic / pathology microscopic / liver / cytoplasmic alteration) of the same compound?
The LEL was 0.3 mg/kg/day.

And the NEL ([9]; systemic / pathology microscopic / liver / cytoplasmic alteration + systemic / clinical chemistry / alanine aminotransferase (alt/sgpt) / …)?
The NEL was 0.16 mg/kg/day.

And the LOAEL [10, 28]?
The LOAEL was 71.9 mg/kg/day.

What about the NEL [10, 28] of the same compound?
Its NEL is 4.02 mg/kg/day.

And the NOAEL [10, 28]?
The NOAEL was 24.2 mg/kg/day.

And the LEL ([10]; systemic / organ weight / kidney / relative to body weight)?
The LEL was 24.2 mg/kg/day.

What about the LOAEL ([11]; systemic / pathology microscopic / liver / hypertrophy + systemic / pathology microscopic / liver / pigmentation) of the same compound?
The LOAEL was 2.02 mg/kg/day.

What about the NOAEL ([11]; systemic / pathology microscopic / liver / hypertrophy + systemic / pathology microscopic / liver / pigmentation + systemic / clinical …) of the same compound?
Its NOAEL is 0.34 mg/kg/day.

What about the LEL [11, 26] of the same compound?
Its LEL is 0.34 mg/kg/day.

And the NEL [11, 26]?
The NEL was < 0.34 mg/kg/day.

And the LEL [12, 29]?
The LEL was 14.5 mg/kg/day.

What about the LOAEL [12, 29] of the same compound?
Its LOAEL is 14.5 mg/kg/day.

What about the NEL [12, 29] of the same compound?
The NEL was 2.33 mg/kg/day.

And the NOAEL [12, 29]?
The NOAEL was 2.33 mg/kg/day.

What about the LEL [12, 30] of the same compound?
The LEL was 0.389 mg/kg/day.

And the NEL [12, 30]?
The NEL was < 0.389 mg/kg/day.

And the LOAEL ([12]; group: parental, systemic / in life observation / food consumption / food consumption + systemic / in life observation / mortality / mortality)?
The LOAEL was 78.6 mg/kg/day.

What about the NOAEL ([12]; group: parental, systemic / in life observation / food consumption / food consumption + systemic / in life observation / mortality / mortality + systemic / …) of the same compound?
Its NOAEL is 14.4 mg/kg/day.

What about the LEL [12, 31] of the same compound?
Its LEL is 14.4 mg/kg/day.

And the LOAEL [12, 31]?
Its LOAEL is 14.4 mg/kg/day.

What about the NEL [12, 31] of the same compound?
The NEL was 2.31 mg/kg/day.

What about the NOAEL [12, 31] of the same compound?
Its NOAEL is 2.31 mg/kg/day.

What does the source list for CC(C)(O)c1ccc(CNC(=O)c2cccnc2Oc2ccc(F)cc2)cc1?
LEL [13]: 1 mg/kg/day; LOAEL [13]: > 1 mg/kg/day; NEL [13]: < 1 mg/kg/day; NOAEL [13]: ≥ 1 mg/kg/day; LOAEL [14, 32]: > 20 mg/kg/day; NOAEL [14, 32]: ≥ 20 mg/kg/day; LEL [14, 33]: 1 mg/kg/day; NEL [14, 33]: < 1 mg/kg/day; LOAEL [15, 34]: > 20 mg/kg/day; NOAEL [15, 34]: ≥ 20 mg/kg/day; LEL [15, 35]: 1 mg/kg/day; NEL [15, 35]: < 1 mg/kg/day; LEL [16, 36]: 3 mg/kg/day; NEL [16, 36]: < 3 mg/kg/day; LOAEL [16, 37]: > 30 mg/kg/day; NOAEL [16, 37]: ≥ 30 mg/kg/day; LEL [17]: 1 mg/kg/day; LOAEL [17]: > 1 mg/kg/day; NEL [17]: < 1 mg/kg/day; NOAEL [17]: ≥ 1 mg/kg/day; LOAEL [18, 38]: > 20 mg/kg/day; NOAEL [18, 38]: ≥ 20 mg/kg/day; LEL [18, 39]: 3 mg/kg/day; NEL [18, 39]: < 3 mg/kg/day; LEL [19]: 20 mg/kg/day; LOAEL [19]: > 20 mg/kg/day; NEL [19]: < 20 mg/kg/day; NOAEL [19]: ≥ 20 mg/kg/day; LEL [20]: 10 mg/kg/day; LOAEL [20]: > 10 mg/kg/day; NEL [20]: < 10 mg/kg/day; NOAEL [20]: ≥ 10 mg/kg/day
